pIC50: −log10 of the molar value. Where a name gives a salt, the structure may show the parent alone. Read-outs that look alike come from different tables or passages of the source.
What was measured:
WT EGFR cell line A-431 = assay: Cell proliferation, WT EGFR A431 (CellTiter-Glo, 72 h); type: cell-based; conditions: A431, 72 h proliferation, read-out: EGFR WT A431 GI50;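 also: proliferation from a luminescent ATP viability signal, expressed as 100 × (treated minus time-zero plate) over (DMSO control minus time-zero plate), cells grown with 10% FBS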
[1] = biological target: T1, human Her2 exon 20 insertion mutation YVMA (Homo sapiens, UniProt P04626, INS775YVMA); assay: Her2 Exon 20 YVMA insertion cellular phosphorylation inhibition (MSD p-Her2 Y1248/total Her2); type: cell-based; conditions: Her2 YVMAins cells, 4 h compound;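 also: lentivirally transduced NIH-3T3 cells in 1% FBS medium, electrochemiluminescent MSD read-out, graded compound concentrations at 37 °C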
T1 construct: expressed in transfected cells; host or cells: NIH-3T3, lentiviral transduction, puromycin selection
T1 sequence (P04626 with tags, fused parts or gaps INS775YVMA): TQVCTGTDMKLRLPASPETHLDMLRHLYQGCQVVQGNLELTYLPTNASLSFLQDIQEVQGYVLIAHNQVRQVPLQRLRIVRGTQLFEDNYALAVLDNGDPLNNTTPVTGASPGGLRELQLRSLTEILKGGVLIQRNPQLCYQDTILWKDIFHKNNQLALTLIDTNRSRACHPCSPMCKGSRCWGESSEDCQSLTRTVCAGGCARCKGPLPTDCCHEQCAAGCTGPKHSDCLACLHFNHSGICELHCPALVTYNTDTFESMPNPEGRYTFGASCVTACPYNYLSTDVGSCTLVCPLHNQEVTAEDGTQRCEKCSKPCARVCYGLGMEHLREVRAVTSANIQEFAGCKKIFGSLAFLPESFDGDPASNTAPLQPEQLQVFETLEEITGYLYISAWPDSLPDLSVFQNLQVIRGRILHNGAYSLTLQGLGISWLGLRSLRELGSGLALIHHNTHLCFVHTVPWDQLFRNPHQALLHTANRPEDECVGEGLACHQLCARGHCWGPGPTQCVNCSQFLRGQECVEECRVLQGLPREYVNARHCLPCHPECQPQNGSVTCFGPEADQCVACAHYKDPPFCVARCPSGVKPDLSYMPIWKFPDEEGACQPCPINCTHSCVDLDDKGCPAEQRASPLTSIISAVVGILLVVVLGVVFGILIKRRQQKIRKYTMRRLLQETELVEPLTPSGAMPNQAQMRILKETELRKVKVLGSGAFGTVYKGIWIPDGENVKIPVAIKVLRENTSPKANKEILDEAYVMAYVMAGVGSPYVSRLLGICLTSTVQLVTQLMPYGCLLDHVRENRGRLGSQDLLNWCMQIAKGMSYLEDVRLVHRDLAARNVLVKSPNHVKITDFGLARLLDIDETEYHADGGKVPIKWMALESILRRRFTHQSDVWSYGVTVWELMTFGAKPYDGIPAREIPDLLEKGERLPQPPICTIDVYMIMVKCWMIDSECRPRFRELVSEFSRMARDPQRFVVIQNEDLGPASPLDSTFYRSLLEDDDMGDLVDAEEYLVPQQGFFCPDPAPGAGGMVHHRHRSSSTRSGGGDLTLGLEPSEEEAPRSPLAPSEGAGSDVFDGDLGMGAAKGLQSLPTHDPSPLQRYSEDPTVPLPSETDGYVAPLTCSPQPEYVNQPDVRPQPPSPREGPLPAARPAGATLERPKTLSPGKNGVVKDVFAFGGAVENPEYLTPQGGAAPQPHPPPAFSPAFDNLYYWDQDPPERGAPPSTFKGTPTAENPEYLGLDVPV

Ba/F3 EGFR ASV ins cells = assay: Cell proliferation, Ba/F3 EGFR ASV ins (CellTiter-Glo, 72 h); type: cell-based; conditions: Ba/F3 EGFR ASV ins, 72 h proliferation, read-out: EGFR Exon20 ASV insertion GI50;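 also: IL3-independent Ba/F3 cells transduced with EGFR V769_D770insASV, cellular ATP luminescence after compound exposure, growth relative to DMSO control with the day-0 baseline reading subtracted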
Protocol: WT or mutant cells were seeded in 384 well plates at appropriate concentrations with corresponding growth media supplemented with 10% FBS, for each experiment, identical plates were prepared in duplicates, and the plates were incubated overnight. On the next day, one of each duplicated plates was dosed with tested compounds at a series of concentrations, and another one of the duplicated plate was analysied for G0 value. The dosed plates were incubate for another 72 h at 37° C. with 5% CO2 and the number of viable cells in each well of the G0 plates or the dosed plates were measured by CellTiter-Glo® Luminescent Cell Viability Assay (Promega). This assay is a luminescent method for determining the number viable cells through measurement of cellular ATP concentration by detection of luciferase activity. Detection reagents (15 µl) was dispensed into per well, and the plates were incubate for 30 min at room temperature. Then, the luminescence in each well was measured using the Envision plate reader (PerkinElmer). The percentage of proliferation was calculated based on the formula: %Proliferation= 100 × (G3 value of sample well-Go value)/(G3 value of DMSO control-Go value).

DB cells = assay: BTK (wt) cell proliferation, DB (CellTiter-Glo, 72 h); type: cell-based; conditions: DB cells, CellTiter-Glo, read-out: Non-BCR activated DB GI50;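 also: DB cells in 384-well plates given a dilution series of compound, viable cells read by ATP luminescence, growth expressed versus DMSO control after subtracting a time-zero plate reading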
Phospho-BTK (Tyr223) = biological target: T2, Phospho-BTK (Tyr223) (Homo sapiens, UniProt Q06187); assay: p-BTK assay in Ramos cells (HTRF Phospho-BTK Tyr223); type: cell-based; conditions: pervanadate stimulated, read-out: p-BTK (Romas) IC50
T2 construct: endogenous in cells; host or cells: Ramos
T2 sequence (Q06187 whole entry): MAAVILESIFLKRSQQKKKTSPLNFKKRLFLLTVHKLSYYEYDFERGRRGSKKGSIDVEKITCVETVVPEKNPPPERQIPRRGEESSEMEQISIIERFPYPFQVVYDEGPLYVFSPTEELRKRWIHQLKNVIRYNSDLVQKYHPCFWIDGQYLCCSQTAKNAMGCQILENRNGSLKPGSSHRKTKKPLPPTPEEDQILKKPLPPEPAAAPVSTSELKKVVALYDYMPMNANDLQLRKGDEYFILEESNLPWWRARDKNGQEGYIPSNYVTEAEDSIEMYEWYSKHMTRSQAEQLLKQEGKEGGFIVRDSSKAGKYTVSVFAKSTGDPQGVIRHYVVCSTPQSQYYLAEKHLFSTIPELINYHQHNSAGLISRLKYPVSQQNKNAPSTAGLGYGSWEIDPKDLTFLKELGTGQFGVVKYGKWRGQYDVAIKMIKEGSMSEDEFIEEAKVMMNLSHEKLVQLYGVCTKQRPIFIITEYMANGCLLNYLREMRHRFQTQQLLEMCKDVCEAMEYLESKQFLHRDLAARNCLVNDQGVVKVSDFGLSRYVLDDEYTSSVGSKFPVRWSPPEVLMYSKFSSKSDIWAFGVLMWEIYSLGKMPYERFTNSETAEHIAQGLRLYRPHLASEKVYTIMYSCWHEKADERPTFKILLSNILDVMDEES
Protocol: The assay plates were then incubated for 30 minutes at 37° C., 5% CO2. 300 uM Per vanadate (3X) was added to each well and the assay plates were again incubated for 60 minutes at 37° C., 5% CO2. Phospho-BTK (Tyr223) is detected using the HTRF® reagents (Cisbio) according to the manufacturer’s one-plate assay protocol.

[2] = In vitro human hepatocytes clearance assay; conditions: both, human, cryopreserved human hepatocytes (suspension), human hepatocytes Clint (µL/min/10^6cells), mixed gender human hepatocytes, incubation up to 100 min
BTK [3] = biological target: T3, BTK (Homo sapiens, UniProt Q06187); assay: BTK target site occupancy ELISA (Ramos); type: cell-based; parameters: endogenous in cells; host or cells: Ramos; conditions: BTK receptor occupancy, read-out: Occupancy (Romas) IC50
T3 sequence (Q06187 whole entry): as above
Protocol: (§1) An enzyme-linked immunosorbent assay (ELISA) method for the detection of free uninhibited Btk in mouse and human lysates. Human or mouse whole blood were incubated with compound for 2 hour at 37° C. Whole blood were lysed in ice-cold lysis buffer containing 50 mM Tris-HCl, pH 7.5, 150 mM NaCl, 1 mM EDTA,1% Triton X-100. […] Samples were transferred to a streptavidin-coated 96-well ELISA plate and mixed while shaking for 1 hour at room temperature. The α-Btk antibody (1:500; clone number D3H5, Cell signaling Technology, Danvers, MA, USA) was then added to the well and incubated for 1 hour at room temperature. After wash, goat α-rabbit-FW (1:5000 dilution in PBS+ 0.05% Tween-20 + 1% BSA) was added to each well and incubated for 1 h at room temperature. The ELISA was developed with addition of tetramethyl benzidine (TMB) followed by Stop Solution and read at OD 450 nm.

WT EGFR = biological target: T4, WT EGFR (Homo sapiens, UniProt P00533); assay: WT EGFR cellular phosphorylation inhibition in A-431 (hEGF stimulated, MSD); type: cell-based; conditions: A431 cells, 4 h compound, then 100 ng/ml hEGF 10 min;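 also: electrochemiluminescence read-out of EGFR Tyr1068 phosphorylation expressed as ratio to total EGFR, cells kept in medium with 1% FBS, compounds tested as a concentration series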
T4 construct: host or cells: A-431
T4 sequence (P00533 25-1210): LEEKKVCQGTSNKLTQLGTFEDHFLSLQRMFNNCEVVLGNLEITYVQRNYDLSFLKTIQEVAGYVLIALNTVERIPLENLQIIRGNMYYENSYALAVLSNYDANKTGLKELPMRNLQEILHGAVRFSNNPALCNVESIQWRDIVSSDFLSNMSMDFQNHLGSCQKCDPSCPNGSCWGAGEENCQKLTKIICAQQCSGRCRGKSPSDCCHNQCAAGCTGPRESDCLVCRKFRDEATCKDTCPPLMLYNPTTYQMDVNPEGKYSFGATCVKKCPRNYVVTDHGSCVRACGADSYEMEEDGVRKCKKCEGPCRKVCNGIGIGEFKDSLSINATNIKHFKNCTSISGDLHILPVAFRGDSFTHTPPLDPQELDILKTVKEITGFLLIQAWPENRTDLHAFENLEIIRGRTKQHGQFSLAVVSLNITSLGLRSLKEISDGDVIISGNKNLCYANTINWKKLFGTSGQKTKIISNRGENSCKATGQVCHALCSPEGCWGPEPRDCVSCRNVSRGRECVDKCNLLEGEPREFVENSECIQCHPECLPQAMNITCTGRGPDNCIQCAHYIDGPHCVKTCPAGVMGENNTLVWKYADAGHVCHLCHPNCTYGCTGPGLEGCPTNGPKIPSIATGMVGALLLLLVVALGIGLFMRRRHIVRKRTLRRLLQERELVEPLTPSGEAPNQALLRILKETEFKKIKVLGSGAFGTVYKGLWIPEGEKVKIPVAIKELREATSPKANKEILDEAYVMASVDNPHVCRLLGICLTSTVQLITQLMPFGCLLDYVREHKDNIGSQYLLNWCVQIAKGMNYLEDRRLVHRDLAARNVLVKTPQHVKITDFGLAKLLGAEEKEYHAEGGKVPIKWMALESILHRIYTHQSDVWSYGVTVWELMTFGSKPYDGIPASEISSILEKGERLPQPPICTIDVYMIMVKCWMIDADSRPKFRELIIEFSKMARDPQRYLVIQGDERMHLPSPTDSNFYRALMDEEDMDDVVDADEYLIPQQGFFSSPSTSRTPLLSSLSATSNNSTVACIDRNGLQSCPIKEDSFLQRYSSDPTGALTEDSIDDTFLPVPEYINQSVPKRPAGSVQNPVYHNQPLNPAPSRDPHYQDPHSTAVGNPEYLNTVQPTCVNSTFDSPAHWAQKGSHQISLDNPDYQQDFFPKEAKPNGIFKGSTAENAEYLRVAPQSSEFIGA

EGFR L858R&T790M = biological target: T5, EGFR L858R&T790M (Homo sapiens, UniProt P00533, L858R/T790M); assay: EGFR L858R and T790M cellular phosphorylation inhibition in NCI-H1975 (MSD); type: cell-based; conditions: NCI-H1975 cells, 4 h compound, p-EGFR(Y1068)/total EGFR; read-out: EGFR L858R and T790M mutation IC50;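 also: phosphorylated and total EGFR detected by electrochemiluminescence, cells exposed to compound in medium containing 1% FBS at 37 °C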
T5 construct: host or cells: NCI-H1975

[4] = Rat pharmacokinetic study after oral administration (SOA); type: in vivo; conditions: male Han Wistar rats
Protocol: For rat pharmacokinetic studies, six male Han Wistar rats were purchased from Beijing Vital River and orally dosed with the test compound at 10 mg/kg in 0.5% Tween-80 and 0.5% hydroxypropyl methylcellulose (v/w). At, 0.5, 1, 2, 4, 7 and 16 hours post-dose, blood samples (>100 µL/time point) were collected from portal vein and via cardiac puncture into separate K2EDTA […] tubes, and then immediately centrifuged at 1500 g, 5 min at 4° C. to separate plasma. The plasma samples were deproteinized with 4 fold acetonitrile (including internal standard), vortex for 10 min and centrifuges for 10 minutes at 4000 g at 4° C.. The supernatantswere submitted to LC/MS/MS (API 5500, Applied Biosystems, Foster City) analysis. Two sets of standard curves were run at the beginning and end of each batch from plasma sample analysis.
Compound absorption was measured by portal vein AUC (AUCHPV) and systemic AUC (AUCSYS) observed maximum concentration (Cmax) in rats after oral administration. Dose is the actual dose used in SOA study. Find below in Table 9 data for exemplary tested compounds.

[5] = In vitro rat hepatocytes clearance assay; conditions: male, rat, cryopreserved rat hepatocytes (suspension), rat hepatocytes Clint (µL/min/10^6cells), 1 µM-range incubation up to 100 min
[6] = tested on: NCI-H1975 EGFR L858R/T790M cells; assay: Cell proliferation, NCI-H1975 EGFR L858R/T790M (CellTiter-Glo, 72 h); type: cell-based; conditions: NCI-H1975, 72 h proliferation, read-out: EGFR L858R and T790M mutation GI50;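 also: viable cells quantified by luciferase-based ATP luminescence, proliferation expressed relative to DMSO-treated wells (100%) after subtracting a parallel plate read at the time of dosing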
Ri-1 cells = assay: BTK (wt) cell proliferation, Ri-1 (CellTiter-Glo, 72 h); type: cell-based; conditions: Ri-1 cells, 72 h, CellTiter-Glo, read-out: BTK WT Ri-1 GI50;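 also: viable cells quantified as cellular ATP luminescence, proliferation normalized to a time-zero plate and the DMSO control, compounds tested across a dilution series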
[7] = biological target: T6, human EGFR exon 20 V769_D770insASV (Homo sapiens, UniProt P00533, INS769ASV); assay: EGFR Exon20 ASV insertion cellular phosphorylation inhibition (MSD pEGFR Y1068/total EGFR); type: cell-based; conditions: Ba/F3 EGFR ASV ins cells, 4 h compound, p-EGFR(Y1068)/total EGFR;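 also: electrochemiluminescent readout on an MSD SECTOR Imager, IL3-independent transduced cells in medium with 1% FBS, compound concentration series at 37 °C and 5% CO2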
T6 construct: expressed in transfected cells; host or cells: Ba/F3 (DSMZ ACC-300), lentiviral transduction, puromycin selection, IL3 depletion

Ba/F3 EGFR NPH ins cells = assay: Cell proliferation, Ba/F3 EGFR NPH ins (CellTiter-Glo, 72 h); type: cell-based; conditions: Ba/F3 EGFR NPH ins, 72 h proliferation, read-out: EGFR Exon20 NPH insertion GI50;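 also: IL3-independent cells carrying constitutively phosphorylated EGFR, compound dilution series, viable cells quantified by ATP luminescence, growth relative to DMSO wells after subtracting pre-dosing (day 0) baseline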
[8] = tested on: Her2 exon 20 insertion YVMA transduced NIH-3T3 cell line; assay: Cell proliferation, Her2 YVMAins NIH-3T3 (CellTiter-Glo, 72 h); type: cell-based; conditions: Her2 YVMAins cells, 72 h proliferation, read-out: Her2 Exon 20 YVMA insertion GI50;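 also: viable cells quantified by ATP luminescence, growth over a day-zero baseline plate expressed as percent of DMSO control growth, compound dilution series in 10% FBS medium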
TMD-8 cells = assay: BTK (wt) cell proliferation, TMD-8 (CellTiter-Glo, 72 h); type: cell-based; conditions: TMD-8 cells, 72 h, CellTiter-Glo, read-out: BTK WT TMD-8 GI50;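 also: viable cells quantified by ATP-based luminescence, proliferation expressed as percent of DMSO control after subtracting a time-zero baseline plate read at dosing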
[9] = biological target: T7, human EGFR exon 20 H773_V774insNPH (Homo sapiens, UniProt P00533, INS773NPH); assay: EGFR Exon20 NPH insertion cellular phosphorylation inhibition (MSD pEGFR Y1068/total EGFR); type: cell-based; conditions: Ba/F3 EGFR NPH ins cells, 4 h compound, p-EGFR(Y1068)/total EGFR;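 also: IL3-independent Ba/F3 cells with constitutively phosphorylated EGFR, compound exposure at 37 °C under 5% CO2, electrochemiluminescent MSD measurement of the p-EGFR to total EGFR ratio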
T7 construct: host or cells: Ba/F3
T7 sequence (P00533 with tags, fused parts or gaps INS773NPH): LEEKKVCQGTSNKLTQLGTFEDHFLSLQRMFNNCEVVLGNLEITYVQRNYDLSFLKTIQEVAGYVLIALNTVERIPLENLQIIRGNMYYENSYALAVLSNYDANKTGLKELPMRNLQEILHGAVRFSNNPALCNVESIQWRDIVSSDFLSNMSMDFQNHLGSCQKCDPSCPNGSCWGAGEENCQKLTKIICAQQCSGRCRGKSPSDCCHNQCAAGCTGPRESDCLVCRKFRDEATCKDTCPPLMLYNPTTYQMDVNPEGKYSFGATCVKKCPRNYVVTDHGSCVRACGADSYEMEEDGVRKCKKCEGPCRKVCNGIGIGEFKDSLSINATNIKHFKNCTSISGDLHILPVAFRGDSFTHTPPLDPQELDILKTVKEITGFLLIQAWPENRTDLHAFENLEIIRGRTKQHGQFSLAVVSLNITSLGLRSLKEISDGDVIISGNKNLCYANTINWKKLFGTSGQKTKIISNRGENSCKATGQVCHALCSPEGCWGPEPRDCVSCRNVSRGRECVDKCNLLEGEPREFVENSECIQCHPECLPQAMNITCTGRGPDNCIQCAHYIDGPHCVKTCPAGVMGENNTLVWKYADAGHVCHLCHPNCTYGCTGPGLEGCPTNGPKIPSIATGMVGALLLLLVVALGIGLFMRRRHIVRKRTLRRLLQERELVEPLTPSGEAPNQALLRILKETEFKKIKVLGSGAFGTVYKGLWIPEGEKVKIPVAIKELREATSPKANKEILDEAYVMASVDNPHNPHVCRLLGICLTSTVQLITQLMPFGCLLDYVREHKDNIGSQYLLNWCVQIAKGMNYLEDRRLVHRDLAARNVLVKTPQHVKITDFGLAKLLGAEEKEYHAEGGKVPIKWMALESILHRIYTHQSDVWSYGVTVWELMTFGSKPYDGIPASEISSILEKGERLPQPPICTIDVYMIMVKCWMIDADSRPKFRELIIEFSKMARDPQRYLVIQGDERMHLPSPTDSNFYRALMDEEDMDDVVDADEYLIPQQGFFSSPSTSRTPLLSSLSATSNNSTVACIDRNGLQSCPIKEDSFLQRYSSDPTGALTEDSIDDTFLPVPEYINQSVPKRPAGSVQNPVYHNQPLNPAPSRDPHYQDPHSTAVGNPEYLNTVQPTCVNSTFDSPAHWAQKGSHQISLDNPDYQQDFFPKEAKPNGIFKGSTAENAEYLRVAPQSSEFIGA

BTK [10] = biological target: T3, BTK; assay: BTK target site occupancy ELISA (PBMC); type: cell-based; conditions: BTK receptor occupancy
Protocol: as §1

OCI-LY-10 cells = assay: BTK (wt) cell proliferation, OCI-LY-10 (CellTiter-Glo, 72 h); type: cell-based; conditions: OCI-LY-10 cells, 72 h, CellTiter-Glo, read-out: BTK WT OCI-LY-10 GI50;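 also: viable cells quantified via cellular ATP luminescence, proliferation given as percent of DMSO control after subtracting a duplicate plate read at time of dosing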
human hepatocytes = assay: In vitro human hepatocytes clearance assay; conditions: mixed gender human hepatocytes, incubation up to 100 min
rat hepatocytes = assay: In vitro rat hepatocytes clearance assay; conditions: male rat hepatocytes, 1 µM-range incubation up to 100 min

SMILES	GI50 (WT EGFR cell line A-431; Homo sapiens, A-431, 72 h)	pIC50 [1]	GI50 (Ba/F3 EGFR ASV ins cells; Ba/F3 EGFR, 72 h)	GI50 (DB cells; Homo sapiens, DB)	pIC50 (Phospho-BTK (Tyr223))	hepatocyte CLint at 1 µM [2]	pIC50 (BTK [3])	pIC50 (WT EGFR)	pIC50 (EGFR L858R&T790M)	hepatocyte CLint at 1 µM [5]	GI50 ([6]; Homo sapiens, NCI-H1975, 72 h)	GI50 (Ri-1 cells; Ri-1, 72 h)	pIC50 [7]	GI50 (Ba/F3 EGFR NPH ins cells; Ba/F3 EGFR, 72 h)	GI50 ([8]; Mus musculus, NIH3T3, 72 h)	GI50 (TMD-8 cells; Homo sapiens, TMD8, 72 h)	pIC50 [9]	pIC50 (BTK [10])	GI50 (OCI-LY-10 cells; Homo sapiens, OCI-Ly10, 72 h)	GI50 (WT EGFR cell line A-431)	also measured
C=CC(=O)Nc1cc(Nc2nccc(Nc3cc(Cl)c(F)cc3C(C)(C)O)n2)c(OC)cc1N1CC[C@@H]1CN(C)C [Compound 53, (R)-N-(5-(4-(5-chloro-4-fluoro-2-(2-hydroxypropan-2-yl)phenylamino)pyrimidin-2-ylamino)-2-(2-((dimethylamino)methyl)azetidin-1-yl)-4-methoxyphenyl)acrylamide]	71.8 nM	7.96	84 nM	> 3000 nM	8.42	4.04 µL/min/1e6 cells	8.51	6.86	8.96	12.3 µL/min/1e6 cells	4 nM	17.1 nM	7.59	89.3 nM	137 nM	6.39 nM	7.52	8.42	9.16 nM	–	SOA DN AUCSYS (ng·h/mL)/(mg/kg) ([4]; dose-normalised systemic AUC): 116 (ng·h/mL)/(mg/kg); Cmax ([4]; rat, plasma, nominal 10 mg/kg (actual dose in c1)): 195 ng/mL
C=CC(=O)Nc1cc(Nc2nccc(Nc3cc(Cl)c(F)cc3C(C)(C)O)n2)c(OC)cc1N1CC[C@@H](NC)C1 [Compound 80, (R)-N-(5-(4-(5-chloro-4-fluoro-2-(2-hydroxypropan-2-yl)phenylamino)pyrimidin-2-ylamino)-4-methoxy-2-(3-(methylamino)pyrrolidin-1-yl)phenyl)acr ylamide TFA salt]	81.5 nM	7.29	177 nM	> 3000 nM	8.24	2.81 µL/min/1e6 cells	8.47	6.46	8.35	15.5 µL/min/1e6 cells	14.8 nM	> 3000 nM	7.43	220 nM	467 nM	40.2 nM	7.02	8.24	23.7 nM	–	–
C=CC(=O)Nc1cc(Nc2nccc(Nc3cc(Cl)c(F)cc3C(C)(O)CC)n2)c(OC)cc1N1CC[C@@H](N(C)C)C1 (single isomer, unassigned) [Compound 77, N-(5-(4-(5-chloro-4-fluoro-2-((R)-2-hydroxybutan-2-yl)phenylamino)pyrimidin-2-ylamino)-2-((R)-3-(dimethylamino)pyrrolidin-1-yl)-4-methoxyphenyl) acrylamide or N-(5-(4-(5-chloro-4-fluoro-2-((S)-2-hydroxybutan-2-yl)phenylamino)pyrimidin-2-ylamino)-2-((R)-3-(dimethylamino)pyrrolidin-l-yl)-4-methoxyphenyl) acrylamide]	–	7.67	–	–	8.80	–	9.31	6.52	8.77	–	–	–	7.29	–	–	–	7.35	8.77	–	32.4 nM	GI50 (Ba/F3 EGFR ASV ins cells): 102 nM; GI50 (DB cells): 1750 nM; human hepatocytes Clint (µL/min/10^6cells) (human hepatocytes): 7.87 µL/min/10^6cells; rat hepatocytes Clint (µL/min/10^6cells) (rat hepatocytes): 15.8 µL/min/10^6cells; GI50 [6]: 3.6 nM; GI50 (Ri-1 cells): 1.55 nM; GI50 (Ba/F3 EGFR NPH ins cells): 81.9 nM; GI50 [8]: 109 nM; GI50 (TMD-8 cells): 1.19 nM; GI50 (OCI-LY-10 cells): 1.23 nM
C=CC(=O)Nc1cc(Nc2ncnc(Nc3cc(Cl)c(F)cc3C(C)(O)CC)n2)c(OC)cc1N1CC[C@@H](N(C)C)C1 (single isomer, unassigned) [Compound 70, N-(5-(4-(5-chloro-4-fluoro-2-((R)-2-hydroxybutan-2-yl)phenylamino)-1,3,5-triazin-2-ylamino)-2-((R)-3-(dimethylamino)pyrrolidin-1-yl)-4-methoxyphenyl)acrylamide or N-(5-(4-(5-chloro-4-fluoro-2-((S)-2-hydroxybutan-2-yl)phenylamino)-1,3,5-triazin-2-ylamino)-2-((R)-3-(dimethylamino)pyrrolidin-1-yl)-4-methoxyphenyl)acrylamide]	–	7.80	–	–	–	–	–	7.15	8.82	–	–	–	7.65	–	–	–	7.17	–	–	15.4 nM	GI50 (Ba/F3 EGFR ASV ins cells): 65.4 nM; GI50 (DB cells): > 3000 nM; human hepatocytes Clint (µL/min/10^6cells) (human hepatocytes): 3.69 µL/min/10^6cells; rat hepatocytes Clint (µL/min/10^6cells) (rat hepatocytes): 12.9 µL/min/10^6cells; GI50 [6]: 9.1 nM; GI50 (Ri-1 cells): 88.9 nM; GI50 (Ba/F3 EGFR NPH ins cells): 65.8 nM; GI50 [8]: 72 nM; GI50 (TMD-8 cells): 10.2 nM; GI50 (OCI-LY-10 cells): 22.2 nM
